Reference: patent US10106523B2, “Amide compound” (ASTELLAS PHARMA INC., priority 2014, dated 2018)

How the values were obtained:
human EP4 receptor = target: T1, human EP4 receptor (Homo sapiens, UniProt P35408); assay: Human EP4 receptor antagonistic action by measurement of cAMP amount in human Jurkat cells; type: cell-based; conditions: PGE2 100 nmol/L, average of three experiments, read-out: IC50 value with respect to the cAMP production action by PGE2 in human Jurkat cells
T1 construct: purchased Chemicon
Procedure: Test Example 3: Evaluation Test of Human EP4 Receptor Antagonistic Action by Measurement of cAMP Amount in Human Jurkat Cells
Jurkat cells (derived from human leukemia T lymphoma) were cultured under the conditions of 37° C. and 5% CO2, using an RPMI1640 culture medium (product No. 11879020, Invitrogen Inc.) with 10% fetal bovine serum (FBS) added. After proliferation up to semiconfluency, indomethacin having a final concentration of […] was added thereto, and the cells were further cultured for 18 hours. These cells were collected in a 15 mL Spitz tube, prepared at 1×10^6 cells/mL using a Cell Banker (Mitsubishi Kagaku Iatron), and stored at −80° C. […]
A cAMP HiRange kit (Cisbio international) was used for cAMP measurement. […] After incubation, the fluorescence intensity of the cryptate at 620 nm and the fluorescence intensity of the d2 at 665 nm were measured using ARVO1420 (PerkinElmer). The cAMPs at 280, 70, 17.5, 4.38, 1.09, 0.27, and 0.068 nmol/L were added to each well and the fluorescence intensity was measured as described above to create a standard curve. […] An average value was calculated from three experiment results.

rat EP2 receptor = target: T2, rat EP2 receptor (Rattus norvegicus, UniProt Q62928); assay: Selectivity test: antagonistic action on rat EP2 receptor (cAMP amount, CHO-K1 cells); type: cell-based; conditions: PGE2 100 nmol/L, CHO-K1 cells stably expressing rat EP2; read-out: Concentration up to which no inhibitory action of 50% or more on the increase in intracellular cAMP amount due to PGE2 through the rat EP2 receptor
T2 construct: expressed in transfected cells
Procedure: Test Example 9: Evaluation Test of Receptor Antagonistic Action on Rat EP1/EP2/EP3 Receptor (Selectivity Test)
The antagonistic action of Compound A on other subtypes ([…], EP2, and EP3) of the rat-derived PGE2 receptor was evaluated. For EP1 and EP3, the intracellular Ca^2+ amount was used as an indicator, and for EP2, the intracellular cAMP amount was used as an indicator, so as to investigate the action of the test compound.
Construction of Rat EP1, EP2, or EP3 Receptor Expressing Vector: A rat EP1 receptor gene (GenBank accession No.: D88751.1), a rat EP2 receptor gene (GenBank accession No.: NM_031088.1), or a rat EP3 receptor gene (GenBank accession No.: NM_012704.1) were inserted respectively into an expression vector pcDNA3.1-V5-His-TOPO (Invitrogen Inc.).
Construction of Cell Stably Expressing Rat EP1, EP2, or EP3 Receptor: […]
The amount of cAMP contained in the cell lysate was measured with a cAMP HiRange kit in the same manner as in Test Example 4. The ratio of the cAMP amount when the test compound was treated was calculated, by taking the cAMP amount with addition of PGE2 having a final concentration of 100 nmol/L as 100% and taking the cAMP amount without addition of PGE2 as 0%.

T1 sequence (P35408 whole entry): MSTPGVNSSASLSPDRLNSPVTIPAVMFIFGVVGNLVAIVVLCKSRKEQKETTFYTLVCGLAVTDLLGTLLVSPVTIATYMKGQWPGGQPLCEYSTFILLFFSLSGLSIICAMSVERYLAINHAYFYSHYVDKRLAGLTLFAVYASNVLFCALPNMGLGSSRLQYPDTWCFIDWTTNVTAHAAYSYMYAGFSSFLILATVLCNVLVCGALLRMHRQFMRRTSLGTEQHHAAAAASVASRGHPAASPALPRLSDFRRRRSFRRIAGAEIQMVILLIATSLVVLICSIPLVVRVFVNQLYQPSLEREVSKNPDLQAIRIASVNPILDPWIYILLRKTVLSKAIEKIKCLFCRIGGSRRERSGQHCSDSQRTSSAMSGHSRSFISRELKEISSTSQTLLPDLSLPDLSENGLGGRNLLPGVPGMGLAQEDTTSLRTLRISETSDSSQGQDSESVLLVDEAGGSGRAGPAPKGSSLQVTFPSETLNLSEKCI
T2 sequence (Q62928 whole entry): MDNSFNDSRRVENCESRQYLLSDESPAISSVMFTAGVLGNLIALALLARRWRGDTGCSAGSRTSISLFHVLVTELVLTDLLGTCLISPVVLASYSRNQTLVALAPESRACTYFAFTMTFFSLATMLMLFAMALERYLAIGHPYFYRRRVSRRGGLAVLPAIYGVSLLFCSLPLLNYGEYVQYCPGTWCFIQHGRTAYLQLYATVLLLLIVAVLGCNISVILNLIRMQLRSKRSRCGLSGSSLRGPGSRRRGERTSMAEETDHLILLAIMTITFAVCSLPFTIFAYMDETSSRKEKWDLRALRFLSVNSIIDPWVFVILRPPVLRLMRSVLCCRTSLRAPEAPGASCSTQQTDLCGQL

Q: With `Cc1nn(Cc2cc3ccccc3cn2)c(C(=O)N[C@@H](C)c2ccc(C(=O)O)cc2)c1Br` [Compound A, 4-[(1S)-1-({[4-bromo-1-(isoquinolin-3-ylmethyl)-3-methyl-1H-pyrazol-5-yl]carbonyl}amino)ethyl]benzoic acid] as the compound, how does the IC50 (human EP4 receptor) read?
A: The IC50 was 0.16 nM.

Q: What about the IC50 (rat EP2 receptor) of the same compound?
A: The IC50 was over 10000 nM.
